Test results: ChEMBL document CHEMBL1154058, “Identification of novel serotonin 2C receptor ligands by sequential virtual screening” (Bioorg Med Chem, 2009)

The compounds below were run against T1, 5-hydroxytryptamine receptor 2C (Homo sapiens, UniProt P28335) (assay: Displacement of [3H]Mesulergine from human recombinant serotonin 5-HT2C expressed in CHO-K1 cells).
T1 sequence (P28335 whole entry): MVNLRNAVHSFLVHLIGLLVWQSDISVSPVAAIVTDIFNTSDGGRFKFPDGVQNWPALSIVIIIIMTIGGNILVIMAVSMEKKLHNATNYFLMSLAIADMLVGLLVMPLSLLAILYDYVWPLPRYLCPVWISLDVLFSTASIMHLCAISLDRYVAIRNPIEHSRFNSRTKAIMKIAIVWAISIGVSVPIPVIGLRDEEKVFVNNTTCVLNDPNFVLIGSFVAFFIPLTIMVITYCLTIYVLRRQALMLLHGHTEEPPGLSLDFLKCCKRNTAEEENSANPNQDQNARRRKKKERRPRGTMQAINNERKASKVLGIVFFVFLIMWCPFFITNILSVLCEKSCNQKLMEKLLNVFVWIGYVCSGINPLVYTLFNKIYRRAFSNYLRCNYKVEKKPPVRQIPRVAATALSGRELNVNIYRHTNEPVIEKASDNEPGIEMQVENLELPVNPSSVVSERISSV
Type: cell-based
`Cc1ccccc1NC(=O)N1CCN2CCCCC2C1` (configuration not stated) was tested, and the IC50 was > 10 µM. For `CCC(=O)Nc1nn2c(-c3cccc(C)c3)nnc2s1`, the IC50 was 9.22 µM. With `Cc1ccc(C2=NC3(CCNCC3)NC2=O)cc1C` the IC50 was > 10 µM. `CN(C)CCNC(=O)c1nc(-c2cccnc2)no1` was tested, and the IC50 was > 10 µM. With `Cn1c(=O)n(C)c2cc(CNCCN3CCOCC3)ccc21` the IC50 was > 10 µM. With `CCc1nnc2c(NCCC3=CCCCC3)nc3ccccc3n12` the IC50 was > 10 µM. In the case of `Cc1cccc(CN2CCNC(=O)C2CC(=O)O)c1` (configuration not stated), the IC50 is reported as > 10 µM. In the case of `CCn1ncc(C2=NOC(C(=O)NCCN3CCOCC3)C2)c1C` (configuration not stated), the IC50 is reported as > 10 µM. Work on `CC(=O)N(CCN(C)C)c1nc2cc3c(cc2s1)OCO3` yielded an IC50 of 2.73 µM. With `Cn1ncc2c(Nc3ccc(F)cc3)nc(NCCN3CCOCC3)nc21` the IC50 was > 10 µM. For `COC(=O)c1cnn2c(O)nc(C3CCNCC3)nc12`, the IC50 was 0.589 µM. `COc1ccc2c3c([nH]c2c1)[C@@](C)(C(=O)O)NCC3` was tested, and the IC50 was > 10 µM. With `CCc1ccccc1NC(=O)CC1NCCNC1=O` (configuration not stated) the IC50 was > 10 µM. In the case of `CN(C)CCNC(=O)c1ccc(-n2ccc3ccccc32)s1`, the IC50 is reported as 0.222 µM. For `CCCNc1nc(Nc2ccccc2)c2cnn(C)c2n1`, the IC50 was > 10 µM. Work on `CCOC(=O)C1=CCc2nc(C)nc(NCCN(C)C)c21` yielded an IC50 of 4.48 µM. `CCNc1nc(Nc2ccc(F)cc2)c2cnn(C)c2n1` was tested, and the IC50 was > 10 µM. Compound `CC(=O)N(CCN(C)C)c1nc2c(F)cccc2s1` has an IC50 of 2 µM. In the case of `CN1CCN(CCNC(=O)c2cc3ccc4cccnc4c3[nH]2)CC1`, the IC50 is reported as > 10 µM. In the case of `COCCNc1nc(Nc2ccc(F)cc2)c2cnn(C)c2n1`, the IC50 is reported as > 10 µM. For `CCN1Cc2cccc(CNc3ccc(C)c(F)c3)c2C1`, the IC50 was 5.63 µM. `COCCCNc1nc(Nc2ccc(F)cc2)c2cnn(C)c2n1` was tested, and the IC50 was > 10 µM. For `C=CCNc1nc(Nc2ccc(F)cc2)c2cnn(C)c2n1`, the IC50 was > 10 µM. In the case of `Cn1ncc2c(Nc3ccc(F)cc3)nc(NC3CCCC3)nc21`, the IC50 is reported as > 10 µM. In the case of `CCCNc1nc2ccc(C)cc2n2nnnc12`, the IC50 is reported as > 10 µM. For `Cc1noc2ncnc(NCCN3CCOCC3)c12`, the IC50 was > 10 µM. `Cc1ccc(NC(=O)N2CCN3CCCCC3C2)cc1C` (configuration not stated) was tested, and the IC50 was > 10 µM. `Cc1ccc(CCNc2nc3ccc(C)cc3n3nnnc23)cc1` was tested, and the IC50 was > 10 µM. In the case of `CC(=O)Nc1c(C(=O)N2CCN(C)CC2)oc2ccccc12`, the IC50 is reported as 5.29 µM. `CCOC(=O)c1noc2ncnc(N3CCN(C)CC3)c12` gave an IC50 of 2.05 µM. For `CCN(CC)CCn1c(NCc2ccncc2)nc2ccccc21`, the IC50 was > 10 µM. Compound `CCCCN(C)CCNc1nc(C)nc2oc(C)c(C(=O)OCC)c12` has an IC50 of 4.17 µM. For `Cc1cccc(C(=O)Nc2nn3c(-c4ccccc4C)nnc3s2)c1`, the IC50 was > 10 µM. In the case of `Cc1noc(C(=O)NCCN2CCOCC2)c1Cl`, the IC50 is reported as > 10 µM. `CCOC(=O)c1c(C)oc2ncnc(NCCN3CCOCC3)c12` was tested, and the IC50 was > 10 µM. With `Cc1ccc2onc(CNC(=O)N3CCN(C)CC3)c2c1` the IC50 was 8.93 µM. For `Cc1nnc(SCc2cc(=O)n3nc(C4CC4)sc3n2)[nH]1`, the IC50 was > 10 µM. In the case of `CC1CCCCN1CCNC(=O)c1noc2c1CCc1sccc1-2` (configuration not stated), the IC50 is reported as > 10 µM. In the case of `Cn1ncc2c(Nc3ccc(F)cc3)nc(NCCCO)nc21`, the IC50 is reported as > 10 µM. `CN(C)CCNC(=O)c1cc2ccccc2[nH]1` showed an IC50 of 0.424 µM. With `COc1cc2c(cc1OC)C1CCCN1C(C)(C)C2` (configuration not stated) the IC50 was > 10 µM. In the case of `Cc1cc(C(=O)NCCN2CCOCC2)on1`, the IC50 is reported as > 10 µM. `CCNc1nc(Nc2ccccc2)c2cnn(C)c2n1` was tested, and the IC50 was > 10 µM. For `CCc1nnc2c(NC)nc3ccccc3n12`, the IC50 was 5.11 µM.

The compounds below were run against T1, 5-hydroxytryptamine receptor 2C (assay: Binding affinity to 5-HT2C receptor).
`C[C@@H]1CNC[C@H]2Cc3ccc(COCC4CC4)nc3N21` was tested, and the Ki was 4 nM. `O=C1Nc2cc(Cl)c(Cl)cc2N2CCNC[C@H]12` was tested, and the Ki was 3.3 nM. With `Clc1ccc(Cl)c(-c2ccnc(N3C[C@@H]4CCN[C@@H]4C3)n2)c1` the Ki was > 20000 nM. Compound `Clc1cccc(COc2cncc(N3CCNCC3)n2)c1` has a Ki of 1 nM. `C[C@@H]1CN(c2ccc(C(F)(F)F)c3ccoc23)CCN1` was tested, and the Ki was 2.4 nM. `Fc1cccc(F)c1-c1cc2c3c(c1)[C@H]1CNCC[C@H]1N3CCCS2` gave a Ki of 5.2 nM. In the case of `C[C@@H](N)Cn1ccc2cc(F)c(Cl)cc21`, the Ki is reported as 1 nM. `CCc1cc2c(ccc3cnn(C[C@@H](C)N)c32)o1` showed a Ki of 0.89 nM.
